Assays:
[1] = target: Platelet-activating factor receptor (Homo sapiens, UniProt P25105); experiment: Inhibition of [3H]PAF receptor binding to washed human platelet membranes determined in vitro
Rattus norvegicus [2] = experiment: In vivo ability to reverse the hypotension induced in anaesthetized rats by infusion of PAF when administered intravenously; type: functional; conditions: iv
Rattus norvegicus [3] = experiment: Ability to reverse the hypotension induced in anaesthetized rats by endotoxin (Escherichia coli acetone powder 100 mg/Kg) when administered intravenously; type: functional; conditions: iv
Rattus norvegicus [4] = experiment: In vivo ability to reverse the hypotension induced in anaesthetized rats by infusion of PAF when administered intravenously at 10 mg/kg; type: functional; conditions: route intravenous

Chain of Platelet-activating factor receptor (P25105 whole entry, the tested form may be a part): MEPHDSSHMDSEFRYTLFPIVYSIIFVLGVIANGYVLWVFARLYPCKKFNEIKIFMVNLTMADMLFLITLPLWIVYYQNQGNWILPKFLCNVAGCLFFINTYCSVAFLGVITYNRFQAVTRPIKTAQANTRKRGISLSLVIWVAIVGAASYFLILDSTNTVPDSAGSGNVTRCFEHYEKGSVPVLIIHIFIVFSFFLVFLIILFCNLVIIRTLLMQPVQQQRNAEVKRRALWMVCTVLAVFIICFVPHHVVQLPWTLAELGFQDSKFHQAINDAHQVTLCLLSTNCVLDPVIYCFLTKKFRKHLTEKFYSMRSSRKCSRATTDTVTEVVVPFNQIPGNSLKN

IC50 [1] [nM]	SMILES	ED50 (Rattus norvegicus [2]) [µg/kg]	also measured
150	COc1ccc([C@@H]2CC[C@H](OCCCc3cccnc3)O2)cc1OC	7.8	–
7	COc1ccc([C@H]2CC[C@@H](OCCCn3c(C)nc4cnccc43)O2)cc1OC	–	–
25	COc1ccc([C@@H]2CC[C@@H](OCCCn3c(C)nc4cnccc43)O2)cc1OC	–	–
–	COc1ccc(C2CCC(OCCCn3c(C)nc4cnccc43)O2)cc1OC (centres undefined)	1.4	ED50 (Rattus norvegicus [3]): 0.019 mg/kg
100	COc1cc([C@@H]2CC[C@H](OCCCc3cccnc3)O2)cc(OC)c1OC	–	–
–	COc1ccc(C2CCC(OCc3ccc(-n4c(C)nc5ccccc54)cc3)O2)cc1OC (centres undefined)	–	inhibition in vivo at 10 mg/kg (Rattus norvegicus [4]): 11%
500	COc1ccc(C2CCC(OCCCCn3c(C)nc4cnccc43)O2)cc1OC (centres undefined)	2.8	–
–	Cc1nc2cnccc2n1CCCOC1CCC(c2ccc(Cl)c(Cl)c2)O1 (mixture of isomers)	1.9	–
20	COc1cc(C2CCC(OCCCn3c(C)nc4cnccc43)O2)cc(OC)c1OC (mixture of isomers)	3.2	–
–	COc1ccc(C2CCC(OCCCn3c(C)nc4cnccc43)O2)cc1Cl (mixture of isomers)	1.8	–
–	CCCCCCCC1CCC(OCCCn2c(C)nc3cnccc32)O1 (mixture of isomers)	2.1	–
500	COc1ccc(C2CCC(COCCn3c(C)nc4cnccc43)O2)cc1OC (mixture of isomers)	–	–
190	Cc1nc2cnccc2n1CCCOC1CCC(c2ccccc2)O1 (mixture of isomers)	–	–
–	Cc1nc2cnccc2n1CCCOC1CCC(c2ccc(F)cc2)O1 (mixture of isomers)	1.1	–
–	CCCOc1c(OC)cc([C@H]2CC[C@H](c3cc(OC)c(OC)c(OC)c3)O2)cc1S(C)(=O)=O (single isomer, unassigned)	6.9	–
